Publication PMC11362529, “Exploring the neuroprotective potential of Nrf2-pathway activators against annonacin toxicity” (Scientific Reports, 2024)

What was measured:
Format in all cases: cell-based, human
[1] = system: LUHMES cells; experiment: Mitochondrial membrane potential (JC-1 probe); conditions: 24 h
Procedure: In PLO/FN-coated 24-well microplates, cells were simultaneously incubated with 20 nM of annonacin and the selected concentrations of Nrf2-pathway activators, in glucose-reduced medium, over the course of 24 h. After that, the medium was removed and cells were washed once with warm HBSS, followed by incubation with 5 µM JC-1 solution in HBSS, for 20 min at 37 °C. For the positive control, the mitochondrial oxidative phosphorylation uncoupler, CCCP, was used at a concentration of 50 µM. After the incubation period, cells were washed with HBSS, and fresh HBSS was added to keep the cells viable during live-image acquisition. Image acquisition was done on a fluorescence microscope Leica-DFC9000GTC (Leica, Frankfurt, Germany). Environmental conditions were kept steady at 37 °C with a 5% CO2 atmosphere during the entire acquisition time. Ten to fifteen images from different fields of view, dispersed across triplicates, were acquired with 200 × magnification (20 × objective, 10 × intermediate magnification), using the same image acquisition parameters for all conditions. The fluorescence of JC-1 monomers was captured on the green channel (λ Ex/Em = 475/519 nm) and the fluorescence of JC-1 aggregates was capture on the red channel (λ Ex/Em = 555/594 nm). Quantification of FI (fluorescence intensities) of JC-1 monomeric and aggregated forms was done using the ImageJ software (http://rsb.info.nih.gov/ij/, ImageJ bundled with 64-bit Java 8). Briefly, TIFF exported images were submitted to background subtraction using the rolling ball method with a radius of 50 pixels. Channel-specific thresholds were applied to all images to define the ROI (region of interest) and FI were measured as integrated density. Data were reported as the ratio between JC-1 aggregates and monomers, obtained by dividing the FI of the JC-1 aggregated form by the FI of the monomeric form.

[2] = system: pThr-181 tau; experiment: AT270 (pThr-181 tau) immunofluorescence; conditions: 48 h
Procedure: (§1) For immunostaining, cells were seeded in differentiation medium, on 24-well microplates containing PLO/FN-coated 13 mm Ø coverslips, and treated for 48 h as previously described. On the readout day, the medium was removed and cells were fixed, permeabilized and blocked as before. Primary antibody dilutions were made in 1.5% NHS in PBS (Supplementary Table S1) and incubated overnight at 4 °C. On the following day, the coverslips were washed three times with PBS and incubated with host-specific fluorescence secondary antibodies (Supplementary Table S1), for 2 h at RT, protected from light. After another three washes with PBS, cell nuclei were stained with 1:5,000 DAPI (4’,6-diamidino-2-phenylindole, Thermo Fisher Scientific) in PBS, for 15 min at RT. The coverslips were mounted in mowiol and left to dry for 24 h before imaging. Image acquisition for FI quantification was done with a 200 × magnification (20 × objective, 10 × intermediate magnification), or 400x (40 × objective, 10 × intermediate magnification) in the case of pSC-35 and AT8 immunostaining, on a fluorescence microscope Leica-DFC9000GTC (Leica). In the case of phospho-tau AT8, Z-stacks consisting of 18 plane images with a step size of 1 μm were acquired. The image acquisition parameters were identical for all conditions. Quantification of 8-OHdG (8-hydroxyguanosine) FI and tau species was performed using the ImageJ software. Ten-to-fifteen images per condition across triplicates, from different view fields, were used for this purpose. Briefly, TIFF exported images were submitted to background subtraction using the rolling ball method with a radius of 50 pixels. For 8-OHdG analysis, a channel-specific threshold was applied to all images to define the ROI and FI was measured and normalized to the cell number, determined by the DAPI channel. The average value of the different view fields per experimental condition was taken and reported as fold change compared to the control (DMSO-treated) condition. For the analysis of phospho-tau AT270 and pan-tau reactivity, channel specific thresholds were applied to all images. The DAPI channel was used to define nuclei from viable cells, by selecting particles with a size above 15 µm^2 and a circularity of 0.3–1.0. The obtained mask was submitted to “close” and “fill holes” processes to smooth the objects and fill in small holes, followed by nine “dilations” and one “watershed” to obtain a ROI covering exclusively the soma of viable cells. The obtained mask was combined with threshold images of phospho-tau AT270 and pan-tau in order to define the respective ROI of each tau species. These masks were used to quantify the number of somas expressing each of these tau species, as well as the respective FI. The number of AT270-positive somas was divided by the number of pan-tau-positive somas and expressed as a percentage. The AT270 FI was normalized to the pan-tau FI and the ratio presented as fold change relative to the control (DMSO-treated) condition. For quantification of pSC-35 and AT8 speckle number and FI, we used CellProfiler™ 4 (https://cellprofiler.org/, Broad Institute Inc., Cambridge, MA, USA) speckle counting pipeline. Twenty-to-thirty images per condition across triplicates were used for this purpose. ImageJ BIOP JACoP plugin was used for estimating co-localization of AT8 with DAPI-stained nuclei. Data were reported as fold change compared to the control (DMSO-treated) condition, or as Pearsonʹs coefficient values in case the of AT8 co-localization data.

[3] = system: pSer-202 and pThr-205 tau; experiment: AT8 (pSer-202/Thr-205 tau) immunofluorescence; conditions: 48 h
Procedure: as §1

[4] = system: HO-1; experiment: HO-1 mRNA by RT-qPCR; conditions: 48 h
Procedure: (§2) LUHMES cells were seeded on PLO/FN coated 6-well microplates and the pharmacological treatments were performed as previously explained. The cells were washed in HBSS, prior to being collected for mRNA isolation (RNeasy® Plus Mini Kit, Qiagen, Venlo, Netherlands), following the manufacturer’s instructions. The mRNA concentrations were determined on a Nano-Drop 2000c (Thermo Fisher Scientific) and 1 µg of mRNA was reverse-transcribed into cDNA with the iScript™ Reverse Transcription Supermix for RT-qPCR Kit (Bio-Rad) on a thermal cycler (SensoQuest, Göttingen, Germany). Real-time PCR was performed using SYBR™ Select Master Mix for CFX (Thermo Fisher Scientific) with 30 ng cDNA and 0.4 µM of primers against the respective target genes (Supplementary Table S3), in a 20 µl total volume, on a CFX96 Touch™ Real-Time Cycler (Bio-Rad). The relative expression of mRNA was calculated using the CFX Manager software (ΔΔCt method) from Bio-Rad, and the Ct values of the target-genes were normalized to the reference genes RPL22 and UBQLN1. The data were reported as fold change relative to the control (DMSO-treated) condition.

[5] = system: NQO1; experiment: NQO1 mRNA by RT-qPCR; conditions: 48 h
Procedure: as §2

[6] = protective concentration of compound + 20 nM annonacin
[7] = protective concentration of compound + 20 nM annonacin, vs annonacin
[8] = protective concentration of compound + 20 nM annonacin, compared to annonacin
[9] = presence of 20 nM annonacin, vs DMSO control under annonacin
[10] = 20 nM annonacin alone, vs control
[11] = 20 nM annonacin alone (DMSO control condition) vs DMSO control without annonacin

SMILES | mitochondrial membrane potential (JC-1 aggregates/monomers ratio) [1, 6] | AT270-positive somas ([2]; 15 μM ezetimibe + 20 nM annonacin) [%] | pThr-181 tau (AT270) normalized to pan-tau, neuritic and somatic compartment [2, 7] | Pearson´s coefficient between AT8 reactivity and DAPI-stained nuclei (r) [3, 6] | AT8 fluorescence intensity [3, 8] | number of AT8 speckles [3, 8] | HO-1 mRNA expression ([4]; absence of annonacin) | HO-1 mRNA expression [4, 9] | NQO1 mRNA expression ([5]; absence of annonacin) | NQO1 mRNA expression [5, 9] | mitochondrial membrane potential (JC-1 aggregates/monomers ratio) ([1]; 20 nM annonacin alone, glucose-reduced medium) | AT270-positive somas ([2]; 20 nM annonacin alone) | AT270 reactivity normalized to pan-tau, in the soma area ([2]; 20 nM annonacin alone) [ratio] | pThr-181 tau (AT270) normalized to pan-tau, neuritic and somatic compartment ([2]; 20 nM annonacin alone) [ratio] | Pearson´s coefficient between AT8 reactivity and DAPI-stained nuclei (r) ([3]; 20 nM annonacin alone) | AT8 fluorescence intensity [3, 10] | number of AT8 speckles per nucleus [3, 10] | HO-1 mRNA expression [4, 11] | NQO1 mRNA expression [5, 11]
O=C1[C@H](CC[C@H](O)c2ccc(F)cc2)[C@@H](c2ccc(O)cc2)N1c1ccc(F)cc1 [ezetimibe] | aggravated mitochondrial depolarization | 75 | attenuated annonacin-induced tau hyperphosphorylation | 0.45 | significant reduction | significant reduction of the number of AT8 speckles | did not induce significant changes | did not induce significant changes | did not induce significant changes | did not induce significant changes | – | – | – | – | – | – | – | – | –
CCCCCCCCCCCC[C@@H](O)[C@H]1CC[C@H]([C@H](O)CCCC[C@H](O)CCCCC[C@@H](O)CC2=CC(C)OC2=O)O1 (stereo partly shown) [annonacin] | – | – | – | – | – | – | – | – | – | – | significant mitochondrial depolarization | more than 90% | 1.9 | 3.4 | 0.58 | statistically higher AT8 fluorescence intensity | non-significant propensity to increase the number of AT8 speckles per nucleus | downregulation of both target-genes | downregulation of both target-genes
C=CC(C)(C)c1cc(/C=C/C(=O)c2ccc(O)cc2)c(OC)cc1O [licochalcone A] | aggravated mitochondrial depolarization | – | attenuated annonacin-induced tau hyperphosphorylation | 0.38 | significant reduction | significant reduction of the number of AT8 speckles | – | significantly rescued from this downregulation | 2.5 fold over DMSO control | – | – | – | – | – | – | – | – | – | –
Cn1c(Nc2nc3ccc(C(F)(F)F)cc3s2)nc2cc(C(=O)NCCOCCO)ccc21 [HPP-D] | rescue the ΔψM from annonacin-induced depolarization | – | attenuated annonacin-induced tau hyperphosphorylation | – | – | – | 19 fold over DMSO control | significantly rescued from this downregulation | fivefold | – | – | – | – | – | – | – | – | – | –
